Source: patent publication US5728885A, “Method of preparing the enantiomers of O-dimethyltramadol” (priority 1996, dated 1998)
Structures can show the parent of a compound that is named as a salt. Where two headings read alike, the source gives them in different places.

Key:
[1] = system: phenylquinone-induced writhing; test: phenylquinone-induced writhing test on mice (analgesia); type: in vivo, male NMRI mice; conditions: Mus musculus, read-out: ED50 in the writhing test
Description: Testing for analgesia using the writhing test on mice
Testing for analgesic effectiveness was performed using the phenylquinone-induced writhing test on mice (modified according to I. C. Hendershot, J. Forsaith, J. Pharmacol. Exp. Ther. 125, 237-240 (1959)). […]. For each dose of substance, groups of 10 animals received, 10 minutes after the intravenous administration of the compounds to be used according to the invention, 0.3 ml per mouse of an 0.02% aqueous solution of phenylquinone (phenylbenzoquinone: manufactured by Sigma, Deisenhofen; solution prepared with the addition of 5 % ethanol and kept on a water bath at 45° C.) administered intraperitoneally. The animals were placed individually in observation cages, and the number of pain-induced stretching movements (so-called writhing reactions=straightening of the body with stretching of the rear extremities) 5-20 minutes after the administration of phenylquinone was counted by means of a push-button counter. The ED50 values were calculated with a 95% confidence limit by means of regression analysis (evaluation program supplied by Martens EDV Service, Eckental) from the dose-dependent decrease in the writhing reactions, by comparison with control groups which were tested in parallel and which were treated with phenylquinone only.

[2] = system: thermal radiation pain (tail flick); test: thermal radiation (tail flick) test on rats (analgesia); type: in vivo, female Sprague Dawley rats; conditions: Rattus norvegicus, 20 min, read-out: ED50 in the tail flick test
Excerpt: Testing for analgesia using the tail flick test on rats
The analgesic effectiveness of the compounds to be used according to the invention was investigated in the thermal radiation (tail flick) test on rats using the method of D'Amour and Smith (J. Pharm. Exp. Ther. 72, 74-79 (1941). Female Sprague Dawley rats with a weight of 120-160 g were used for this purpose. The animals were placed individually in test cages and the bases of their tails were exposed to the focused thermal radiation from an electric lamp (Rhema Analgesiemeter for rats). The lamp intensity was adjusted so that the time from switching on the lamp until the sudden twitching away of the tail (latency of pain) was 3-6 seconds for untreated animals. Before the administration of the compounds to be used according to the invention, the animals were tested twice within five minutes and the average value of these measurements was calculated as the pre-test average. The pain measurement was made 20, 40 and 60 minutes after intravenous administration. […]. In order to determine the dosage-dependency, the compounds were administered in doses increasing logarithmically by a factor of 3-5, which included the threshold and the maximum effective dose each time. The ED50 values were determined from the number of analgesic animals by the method of Litchfield and Wilcoxon (J. Pharm. Exp. Ther. 96, 99-113, (1949)). The ED50 was calculated at the effective maximum 20 minutes after intravenous administration of the substance.

[3] = analgesic effect (statement in words); type: in vivo; conditions: on its own or in combination with tramadol
[4] = intravenous, phenylquinone i.p. 10 minutes after compound, writhing counted 5-20 minutes after phenylquinone, mice
[5] = intravenous, 20 minutes after administration, >150 % of pre-test average latency, rats

SMILES	ED50 ([1]; iv)	ED50 ([2]; iv)	analgesic effect [3]	ED50 [1, 4]	ED50 [2, 5]
COc1cccc([C@@]2(O)CCCC[C@@H]2CN(C)C)c1.Cl (racemic) [racemic tramadol hydrochloride, (1RS, 2RS)-2-dimethylaminomethyl-1-(3-methoxy-phenyl)-cyclohexanol hydrochloride, reference compound]	3.59 mg/kg	6.47 mg/kg			
CN(C)C[C@H]1CCCC[C@]1(O)c1cccc(O)c1 (relative stereo) [O-demethyltramadol]			high analgesic effect		
CN(C)C[C@H]1CCCC[C@]1(O)c1cccc(O)c1 [(+)-enantiomer of O-demethyltramadol hydrochloride, (+)-(1R, 2R)-3-(2-dimethyl-aminomethyl-1-hydroxy-cyclohexyl)-phenol hydrochloride]				0.489 mg/kg	1.01 mg/kg
CN(C)C[C@@H]1CCCC[C@@]1(O)c1cccc(O)c1 [(-)-enantiomer of O-demethyltramadol hydrochloride, (-)-(1S, 25)-3-(2-dimethylaminomethyl-1-hydroxy-cyclohexyl)-phenol hydrochloride]				6.6 mg/kg	> 10 mg/kg
